Test results published in patent publication US6521776B2, “Immunological adjuvant compounds compositions and methods of use thereof” (Eisai Company, Limited, priority 2000, dated 2003).
pEC50: −log10 of the molar value. Like-named read-outs stand apart in the source and are kept apart here.

Experiments:
TNF-α = assay: Induction of cytokines in vitro: TNF-α release in human whole blood (ELISA); format: cell-based; conditions: read-out: TNFa Stimulation Value
Description: The ability to trigger a stimulatory response in macrophages is likely a necessary characteristic of molecules with imunoadjuvant properties. Therefore, the ability of compounds to stimulate release of TNF-α and other cytokines from immune cells is tested as an indication of their ability to stimulate an immune response, which may result in adjuvant activity.
The most readily available human system to test compound activity on monocytes/macrophages is in whole blood. Various concentrations of compounds of the invention were added as 10×stocks in 50 μl of 5% dextrose followed by 50 μl of 5% dextrose into 400 μl of heparinized whole blood obtained from normal volunteers (18-51 years old; 110-230 lb) into the wells of plastic assay plates, for a total volume of 500 μl/well (final concentration of whole blood was 80%). The 10×stocks were made by dissolving compounds to 1 mM in water and sonicating them for 2 minutes in an ice bath. The compounds were then brought to 10× in 5% dextrose. After a 3-hour incubation with gentle shaking at 37° C. in a 5% CO2 atmosphere, the assay plates were centrifuged at 1000×g for 10 minutes at 4° C. and plasma was drawn off and frozen at −80° C. Plasma samples were analyzed for TNF-α by ELISA (R & D Systems, Minneapolis, Minn.). Each assay point was tested in triplicate.
The stimulatory value is the compound concentration needed to stimulate TNF-α release equal to half the release obtained from the same whole blood sample with 10 ng/ml of LPS.

[1] = system: tetanus toxoid-specific IgG; set-up: species or system Balb/c mice; conditions: mouse, in vivo, sc

Compound	pEC50 (TNF-α; compound concentration needed to stimulate TNF-α release equal to half the release obtained with 10 ng/ml LPS, 80% heparinized human whole blood, 3-hour incubation, 37° C.)	Mean concentration of tetanus toxoid-specific IgG (6 mice/group) [1]	pEC50 (TNF-α; Homo sapiens, 3 h)
CCCCCCCCCCCCC/C=C/[C@@H](OC(=O)CCCCCCCCCCC)[C@H](COP(=O)(O)OCCNC(=O)NCCOP(=O)(O)OC[C@H](NC(=O)CCCCCCCCCCCCC)[C@@H](/C=C/CCCCCCCCCCCCC)OC(=O)CCCCCCCCCCC)NC(=O)CCCCCCCCCCCCC (single isomer, unassigned) [ER-805270]	< 5.00	–	–
CCCCCCCCCCCCCC(=O)N[C@@H](COP(=O)([O-])OCCNC(=O)NCCOP(=O)([O-])OC[C@H](NC(=O)CCCCCCCCCCCCC)[C@H](CCCCCCCCCCC)OC(=O)CCCCCCCCCCC)[C@H](CCCCCCCCCCC)OC(=O)CCCCCCCCCCC.[Na+].[Na+] [ER-804874]	–	5640 µg/mL	8.05
CCCCCCCCCCCCC/C=C/[C@@H](OC(=O)CCCCCCCCCCC)[C@H](COP(=O)([O-])OCCNC(=O)NCCOP(=O)([O-])OC[C@H](NC(=O)CCCCCCCCCCCCC)[C@@H](/C=C/CCCCCCCCCCCCC)OC(=O)CCCCCCCCCCC)NC(=O)CCCCCCCCCCCCC.[Na+].[Na+] [ER-805270]	–	1995 µg/mL	–
CCCCCCCCCCCCC(=O)O[C@H](CCOP(=O)([O-])OCCNC(=O)NCCOP(=O)([O-])OCC[C@@H](OC(=O)CCCCCCCCCCCC)C(CCCCCCCCCC)OC(=O)CCCCCCCCCC)C(CCCCCCCCCC)OC(=O)CCCCCCCCCC.[Na+].[Na+] (stereo partly shown) [ER-805271]	–	2010 µg/mL	5.80
CCCCCCCCCCCCC(=O)N[C@@H](CCOP(=O)([O-])OCCNC(=O)NCCOP(=O)([O-])OCC[C@H](NC(=O)CCCCCCCCCCCC)C(CCCCCCCCCC)OC(=O)CCCCCCCCCC)C(CCCCCCCCCC)OC(=O)CCCCCCCCCC.[Na+].[Na+] (stereo partly shown) [ER-805274]	–	3218 µg/mL	7.85
CCCCCCCCCCCCCC(=O)NC(CCCCCCCCC)CC[C@@H](COP(=O)(O)OCCNC(=O)NCCOP(=O)(O)OC[C@H](CCC(CCCCCCCCC)NC(=O)CCCCCCCCCCCCC)OC(=O)CCCCCCCCCCCCC)OC(=O)CCCCCCCCCCCCC (stereo partly shown) [ER-805328]	–	–	6.69
CCCCCCCCCCCCCC(=O)N[C@H](CCCC(CCCCCCCC)OC(=O)CCCCCCCCCCCC)COP(=O)(O)OCCNC(=O)NCCOP(=O)(O)OC[C@@H](CCCC(CCCCCCCC)OC(=O)CCCCCCCCCCCC)NC(=O)CCCCCCCCCCCCC (stereo partly shown) [ER-805517]	–	–	7.15
